Results taken from patent US8722343B2, “Methods and compositions for the diagnosis and treatment of diabetes” (priority 2008, dated 2014).

What was measured:
GLT1 = GLT1 expression in βTC3 cells by western blotting; format: cell-based, mouse; settings: 10 μM ceftriaxone, five days
Procedure: (§1) 6D ShRNA interference. βTC3 cells were transfected with two different shRNA directed against GLT1 (Sh1, Sh3) or a control shRNA (ShC), and three days after transfection, cells were assayed for 3[H]-D-aspartate uptake (b) or lysed and the presence of GLT assayed by western blotting (a) or fixed and processed for TUNEL (c).
8A: GL1 expression. 150.000 cells were plated on […] diameter Petri dishes and 24 hours after plating, they were incubated with 10 μM ceftriaxone for five days. After incubation cells were lysed and 100 μg of whole lysate extracts were separated onto a 9% SDS-PAGE and the expression of glutamate transporter was detected using specific anti-GLT1 or anti-β-catenin antibodies. The expression of GLT1 was quantified by densitometry, and normalized over β-catenin content. Shown is a representative experiment; Similar results were obtained in two other independent experiments.
βTC3 or αTC1 cells were seeded onto 6-cm tissue culture plates and allowed to attach and grow until confluence. […] After 1 h at 4 C, lysates were centrifuged at 13,000 rpm for 10 min, and 50 μg of total extracted proteins were analyzed on 9% SDS-PAGE and transferred onto nitrocellulose (Shleicher and Shull, Dassel, Germany). […] The signal intensities were densitometrically quantified using Scion Image software. […]

βTC3 cells [1] = assay: MTT cell viability assay in βTC3 cells; format: cell-based, mouse
Procedure: 1A: Glutamate induces a dose-dependent beta-cell death. 24 hrs after plating, αTC1 and βTC3 cells were incubated for five days with the indicated glutamate concentrations and viability was assessed by MTT assay. Data are presented as % Relative Growth Rate (RGR) versus controls (100%) and represent the mean±SE of at least 7 independent experiments (n=6). * p<0.01 vs ctrl; ° p<0.01 vs Glu 5 mM in αTC1.
1C: β-cell death is prevented by pharmacological inhibition of ionotropic channels. 24 hrs after plating, αTC1 and βTC3 cells were incubated for five days with 0.025 mM CNQX (left panel) or 0.1 mM APV (right panel), in the presence or the absence of 5 mM glutamate and viability was assessed by MTT assay. Data are presented as % RGR versus control samples (100%) and represent the mean±SE of three independent experiments (n=5). * p<0.05
6B. MTT assay. 24 hrs after plating, αTC1 and βTC3 cells were incubated for five days with different DHK concentrations and viability was assessed by MTT assay. Data are presented as % RGR versus control (100%) and represent the mean±SE of three independent experiments (n=8). * (DHK versus control) p<0.05
8B: MTT assay: 24 hrs after plating, βTC3 cells were incubated for five days with the indicated ceftriaxone concentrations in the presence or absence of 5 mM glutamate and viability was assayed by MTT assay. Data are presented as % RGR versus control (100%) and represent the mean±SE of three independent experiments (n=8). *(ceftriaxone versus relative control) p<0.05.
βTC3 and αTC1 cells were derived from progeny of transgenic mice expressing SV40 large T-antigen under control of the rat insulin II 5′-flanking region or rat preproglucagon 5′-flanking region, respectively (Powers et al, 1990) and were originally provided by Douglas Hanahan (Department of Biochemistry and Biophysics, University of California, San Francisco, Calif.). βTC3 were grown in RPMI 1640 11 mM glucose, supplemented with 10% heat inactivated fetal bovine serum, 2 mM L-glutamine, and 100 IU/ml streptomycin/penicillin, as previously described (Galbiati et al, 2002). Experiments were performed between the 27 and 33 passage of cell culture.
(§2) 3-(4,5-Dimethylthiazol-2-yl)-2,5-diphenyltetrazolium bromide (MTT) assay. βTC3 cells were seeded at a density of 8×10^3 cells/well onto 96-well culture plates. Cells were allowed to attach and grow for 24 h in standard medium. Then medium was replaced with fresh medium containing glutamate, DHK (Dihydrokainic Acid, Sigma Aldrich), glutamate receptor inhibitors APV and CNQX (Sigma Aldrich) or ceftriaxone (Sigma Aldrich) at the indicated concentrations. […] Coloured formazan product was determined spectrophotometrically at 540 nm. 20 islets/tube were used to assess viability in human isolated islets. Data are expressed as % Relative Growth Rate (% RGR) versus control samples.

human isolated islets [2] = format: cell-based; settings: 16.7 mM glucose; DHK (0.3 mM) or L-glutamate (0.5 mM) alone
Procedure: FIG. 5: GLT1 CONTROLS HORMONE SECRETION IN HUMAN ISOLATED ISLETS. 48 hours after isolation, 20 human islets per tube were exposed to 3.3 or 16.7 mM glucose in the absence and the presence of either L-glutamate (0.5 mM), DHK (0.3 mM) or both L-glutamate and DHK, and insulin secretion measured. Levels of secreted insulin from islets were normalized to total insulin content. Data are expressed as % of insulin content and represent the mean±SD of two independent experiments performer in duplicate.
Insulin content and secretion were assessed on 20 islets, using a Micro-particle Enzyme Immunoassay (MEIA insulin, IMX System, Abbott Laboratories, Abbott Park, Ill., USA). Insulin secretion in response to increasing glucose concentrations, glutamate or DHK treatment was assessed by static incubation as previously described (Federici et al, 2000). Briefly, batches of 20 islets were pre-incubated in 1 ml of Krebs-Ringer buffer (KRB) supplemented with 3, 3 or 16.7 mM glucose for 30 min. Then the supernatants were replaced with Kreb's buffer containing 3, 3 or 16.7 mM glucose plus glutamate or the specific GLT1 inhibitor DHK (Sigma, St Louis, Mo., USA), as indicated. After a 30-min incubation at 37° C., the medium was removed and frozen for immunoassays. At the end of incubation, islets were lysed in lyses buffer and the total insulin content determined by immunoassay. […]

βTC3 cells [3] = assay: TUNEL apoptosis assay in βTC3 cells; format: cell-based; settings: 0.5 mM glutamate for 5 days
Procedure: 1B: Glutamate overstimulation causes increased β-cell apoptosis. 24 hours after plating, βTC3 cells were incubated for five days with 0.5 mM glutamate, and cell apoptosis was assessed by TUNEL assay. The cell nuclei were labelled with PrI. Histograms on the right represent TUNEL positive cells per field, and are the mean±SE of two independent experiments performed in duplicate.
6C TUNEL assay: 24 hours after plating, βTC3 cells were incubated for five days with 0.1 mM DHK, and cell apoptosis was assessed by TUNEL assay. Cell nuclei were labelled with PrI. Data are presented as TUNEL positive cells per field (histograms on the right), and are the mean±SE of two independent experiments performed in duplicate. * P<0.05
as §1
Apoptosis of β-TC3 cells was estimated using the terminal deoxynucleotidyltransferase-mediated dUTP-biotin nick end-labelling assay (TUNEL). […] Tunel-positive cells were counted by two independent observers using a 40× objective from at least 40 randomly selected fields per coverslip. […]

αTC1 cells = assay: MTT cell viability assay in αTC1 cells; format: cell-based, mouse
Procedure: 1A: Glutamate induces a dose-dependent beta-cell death. […] Data are presented as % Relative Growth Rate (RGR) versus controls (100%) and represent the mean±SE of at least 7 independent experiments (n=6). * p<0.01 vs ctrl; ° p<0.01 vs Glu 5 mM in αTC1.
αTC1 were cultured in DMEM 25 mM glucose supplemented with 10% heat inactivated fetal bovine serum, 2 mM glutamine, and 100 IU/ml streptomycin/penicillin, as previously described (Galbiati et al, 2002). Experiments were performed between the 33 and 43 passage of cell culture. Cells were cultured under standard humidified conditions of 5% CO2 at 37° C.
as §2

human isolated islets [4] = assay: MTT viability assay in isolated human islets; format: cell-based; settings: 5 mM glutamate, three days, 16.7 mM glucose
Procedure: 7A: MTT assay: 48 hrs after isolation, 20 islets/tube were incubated for three days with the indicated glutamate and DHK concentrations in the presence of 3.3 mM glucose or 16.7 mM glucose and viability was assessed by MTT assay. Data are expressed as % Relative Growth Rate (% RGR) versus control samples and are the means±SE of three different experiments performed in triplicate.
Human pancreatic islets were isolated from the pancreases of cadaveric multiorgan donors by using the procedure already described by Ricordi (Ricordi, et al, 1988). The islets used in this study were isolated from eight different organs. After the isolation, the islets were purified from the contaminant exocrine tissue by centrifugation on Ficoll gradients, obtaining a final purity that ranged from 60% to 80%, as assayed by dithizone staining (Ricordi et al, 1988). Islets were then cultured in RPMI 1640 tissue culture medium. […]
3-(4,5-Dimethylthiazol-2-yl)-2,5-diphenyltetrazolium bromide (MTT) assay. βTC3 cells were seeded at a density of 8×10^3 cells/well onto 96-well culture plates. […] After five days incubation, cell viability was assessed using the MTT method, according to the manufacturer's protocols (Sigma Aldrich). Coloured formazan product was determined spectrophotometrically at 540 nm. […] Data are expressed as % Relative Growth Rate (% RGR) versus control samples.

[5] = acute exposure (15 min, 0.5 μM glutamate) or exposure for 2 days

CO/N=C(\C(=O)N[C@@H]1C(=O)N2C(C(=O)O)=C(CSc3nc(=O)c(=O)[nH]n3C)CS[C@H]12)c1csc(N)n1 [ceftriaxone]
GLT1/EAAT2 transporter expression (GLT1): increased transporter's expression | protection from glutamate toxicity (βTC3 cells [1]; five days with ceftriaxone, 5 mM glutamate): dose-dependent protection

N[C@@H](CCC(=O)O)C(=O)O [glutamate]
effect on insulin secretion (human isolated islets [2]): No effect | reduction in RGR (cell viability) (βTC3 cells [1]; 0.05 mM glutamate, five days): 11.53 ± 0.52% | reduction in RGR (cell viability) (βTC3 cells [1]; 5 mM glutamate, five days): 51.46 ± 2.61% | effect on cell survival (βTC3 cells [1]; [5]): did not find any effect | number of TUNEL positive cells (βTC3 cells [3]): significant increase | glutamate toxicity (cell viability) (αTC1 cells; 0.05 to 5 mM glutamate, five days): detectable only at the highest glutamate concentration (5 mM) | effect on cell survival (αTC1 cells; [5]): did not find any effect | RGR decrease (cell viability) (human isolated islets [4]): 18%

N#Cc1cc2c(cc1[N+](=O)[O-])=NC(=O)C(=O)N=2 [CNQX, 6-Cyano-7-nitroquinoxaline-2,3-dione]
increase in RGR relative to 5 mM glutamate (βTC3 cells [1]; 0.025 mM CNQX with 5 mM glutamate, five days): 30% | prevention of vulnerability of β-cells to glutamate (βTC3 cells [1]; co-administration with 5 mM glutamate, five days, 0.025 mM CNQX or 0.1 mM APV): partially prevented
